The test system of data set [1] is Kunming mice. The data set can be described thus: Mouse writhing test (acetic acid). The following applies: 20 mg/kg ig for 4 days. The data set is classed as in vivo. As to the method:
Kunming mice (18-22 g, male) were randomly divided into several groups with 20 animals in each group.
Control group: PEG400 was administered (ig) for 4 days, 0.1 ml/10 g body weight.
Test groups: CAI and its analogues (compounds with structural formula of A, R1═Cl or H, R2═Cl, H, Br, CH3 or CF3, R3═Cl, Br, CF3, NO2 or CN, X═O, S or C═O; The compounds are listed in Table 6 (A1˜A10)) were administered (ig) for 4 days (20 mg/kg body weight, 2 mg/ml).
The pain intensity test was carried out 8 hours after the last drug administration. 0.6% acetic acid (0.1 ml/10 g body weight) was injected (ip). The animals were put into a glass cylinder immediately. The writhing frequency in the following 5-15 minutes was recorded.
(Writhing tests count abdominal constrictions after an irritant is injected.)

The test system of data set [2] is Kunming mice. Description: Effect of CAI on drug addiction caused by morphine (naloxone-induced jumping). The following applies: mouse, in vivo. As to the method: 160 Kunming mice (18-22 g, half male and half female) were divided into 4 groups randomly, with 40 mice per group:
Control group with solvent, PEG400/N.S. (10 μl/g/day PEG400, (ig), 4 days);
Group treated with CAI, CAI/N.S. (CAI is resolved in PEG400 to reach a final concentration of […], 20 mg CAI/kg/day was administered (ig) for 4 days, N.S. was taken according to morphine administration in table 1);
Group treated with morphine, PEG400/morphine (10 μl/g/day PEG400 was administered (ig) for 4 days, morphine was administered according to the table below);
4 hours after the morphine administration on the fifth day, animals of each group was injected (ip) with 1 mg/kg naloxone and then put into a tank (5000 ml) immediately. The jump frequency in 30 minutes was recorded. Two-factor analysis of variance by SPSS was performed to analyse the experiment results.

Data set [3] relates to Kunming mice. The data set can be described thus: Hot plate test (analgesic effect). In kind it is in vivo. The protocol: Kunming mice (18-22 g, female) were randomly divided into 4 groups with 20 animals per group.
Control group with dissolvent: 10 μl PEG400 was administered (ig) twice with the interval of 24 hours. The pain intensity test was carried out 8 hours after the second administration. 200 μl N.S. was injected (sc) 5 minutes before the test.
Morphine/PEG400 group: 10 μl PEG400 was administered (ig) twice with the interval of 24 hours. The pain intensity test was carried out 8 hours after the second administration. Morphine (2 mg/kg body weight) was injected (sc) 5 minutes before the test.
CAI/N.S. group: CAI (20 mg/kg body weight, 2 mg/ml) was administered (ig) twice with the interval of 24 hours. The pain intensity test was carried out 8 hours after the second administration. 200 μl N.S. was injected (sc) 5 minutes before the test.
The pain intensity test was carried out 8 hours after the second administration. Morphine (2 mg/kg body weight) was injected (sc) 5 minutes before the test.
The mice were placed onto a hot plate (53±0.5° C.) and the latency periods (second) of hopping responses were recorded as the pain threshold index.
For orientation: Hot-plate and tail-flick tests time the reaction to a heat stimulus.

For a further data set, the system named is rats. Description: Granulomatous tissue formation (implanted tampon). The data set is classed as in vivo. As to the method: 44 rats (160 g) were randomly divided into 4 groups (11 rats/group). Animals were slightly anaesthetized by ether. After sterilization, the groin was cut bilaterally. A sterile tampon (50 mg) was implanted (sc). On the same day, the following treatments were administered: N.S. (i.p., control group), 0.067 mg/kg/day dexamethasone (i.p., positive control), 20 mg/kg/day CAI (p.o., dissolved in PEG 400, test group) and 0.067 mg/kg/day dexamethasone+20 mg/kg/day CAI (p.o., dissolved in PEG 400, combination group). After 7 days administration, the animals were sacrificed. The cotton was removed. The granulomatous tissue was dried at 60° C. oven for 12 hr and weighed. Increment in the dry weight of the tissue was taken as measure of granuloma formation. The Increment was adjusted for respective body weight, and the mean value for each group was calculated.

Consider `NC(=O)c1nnn(Cc2cc(Cl)c(C(=O)c3ccc(Cl)cc3)c(Cl)c2)c1N` [CAI, 5-amino-1-[3,5-dichloro-4-(4-chlorobenzoyl chloride)benzyl]-1H-1,2,3-triazole-4-carboxamide], for which the “Analgesic effect in writhing test (in words)” value in the data set with Kunming mice [1] is reported as “obvious analgesic effect”. For the same compound, the “Writhing frequency mean ± std” value with Kunming mice [1] (0.6% acetic acid ip, writhing in following 5-15 minutes) worked out at 8.1 ± 2.3. The “Addiction / withdrawal syndrome (in words)” value in the data set with Kunming mice [2] is on record as “does not cause addiction”. In addition, in the data set with Kunming mice [3] (hot plate 53±0.5° C., latency of hopping response, CAI 20 mg/kg ig twice, morphine 2 mg/kg sc), the “Pain threshold (sec, mean ± std)” value turned out to be 19.9 ± 6.2 s. The “Analgesic effect in hot plate test (in words)” value with Kunming mice [3] (two-factor ANOVA) was “neither have obvious analgesic effect alone”. Besides, the “granulomatous tissue:bady weight ratio (mean ± std)” value in the data set on rats (7 days, CAI 20 mg/kg/day p.o., dexamethasone 0.067 mg/kg/day i.p.) is 0.060 ± 0.00479. Moreover, the “Effect on granulomatous tissue formation (in words)” value with rats (two-way ANOVA) is “potent in inhibiting granulomatous tissue formation”.

The values above are taken from patent US20100041632A1, “USES OF THE CARBOXY-AMIDO-TRIAZOLE COMPOUNDS AND SALTS THEREOF” (priority 2006, published 2010).
